# According to US6245968A, “Mutated hydroxyphenylpyruvate dioxygenase, DNA sequence and isolation of plants which contain such a gene and which are tolerant to herbicides” (Aventis CropScience S.A., priority 1997, dated 2001):
# Legend:
# [1] = molecular target: T1, Synechocystis PCC6803 HPPD variant SyN318 (Glycine318 replaced with asparagine) (Synechocystis sp., UniProt Q55810, G318N); test: Colorimetric screening test (browning of medium) in E. coli; assay type: cell-based; settings: 7 mM inhibitor
# T1 construct: made in house; host or cells: E. coli, vector ptrc-99 A; crude extract (JM105 is named for the unmutated plasmid)
# Method: (§1) A culture medium of the YT broth type, containing 1% agarose (Gibco BRL ultra pure), 5 mM L-tyrosine (Sigma) and the agent for selecting the above mentioned pRPC vector, is dispensed into a 96-well plate at the rate of […] per well. 10 microliter of a culture of E.coli in the exponential phase of growth and harbouring the pRPC vector are dispensed into each well. After 16 hours at 37° C., the wells which only contain the culture medium, or those which have been seeded with an E. coli culture harbouring the vector pKK233-2, are translucent whereas the wells which have been seeded with an E. coli culture harbouring the vector pRPC are coloured brown.
# (§2) With several mutants at position 334 in Pseudomonas fluorescens having been obtained, two site-directed mutagenesis experiments (U.S.E., Pharmacia) were carried out using the oligonucleotides MUGLYA and MUGLYB, which oligonucleotides were intended to replace the glycine at position 318 (of Synechocystis corresponding to the glycine at position 334 of P.fluorescens) either with an asparagine or a serine or with a proline or an alanine (SEQ ID NO 18 and 19).
# (§3) One mutant from each experiment was sequenced.
# (§4) Glycine318, replaced with asparagine, designated SyN318, similar to PfD334 (in Example 3).
# [2] = test system: Pseudomonas fluorescens A32 HPPD variant PfW334 (Glycine334 replaced by tryptophan); test: as above; assay type: cell-based; settings: 7 mM inhibitor, score 0 to 10
# Method: as §1
# (§5) A series of samples was made up with identical culture medium which contained varying concentrations (0 mM to 14 mM) of 2-cyano-3-cyclopropyl-1-(2-methylsulphonyl-4-trifluoromethylphenyl)propane-1,3-dione (EP 0496631), which was dissolved in water and brought to pH7.5. This molecule is a diketonitrile which is recognized as being an effective inhibitor of HPPD activity (Pallett, K. E. et al., 1997. Pestic. Sci. 50, 83-84).
# [3] = test system: Pseudomonas fluorescens A32 HPPD variant PfE298 (Gly298 replaced by glutamic acid); test: as above; assay type: cell-based; settings: 7 mM inhibitor
# Method: as §1, §5
# [4] = test system: Pseudomonas fluorescens A32 HPPD variant PfL215 (proline 215 replaced by leucine); test: as above; assay type: cell-based; settings: 7 mM inhibitor, score 0 to 10
# Method: as §1, §5
# [5] = test system: Pseudomonas fluorescens A32 HPPD variant PfS334 (Glycine334 replaced by serine); test: as above; assay type: cell-based; settings: 7 mM inhibitor, score 0 to 10
# Method: as §1, §5
# [6] = test system: Pseudomonas fluorescens A32 HPPD variant PfD334 (Glycine334 replaced by aspartic acid); test: as above; assay type: cell-based; settings: 7 mM inhibitor, score 0 to 10
# Method: as §1, §5
# [7] = test system: Pseudomonas fluorescens A32 HPPD variant PfL333 (Phenylalanine333 replaced by leucine); test: as above; assay type: cell-based; settings: 7 mM inhibitor, score 0 to 10
# Method: as §1, §5
# [8] = test system: Pseudomonas fluorescens A32 HPPD variant PfP334 (Glycine334 replaced by proline); test: as above; assay type: cell-based; settings: 7 mM inhibitor, score 0 to 10
# Method: as §1, §5
# [9] = test system: Pseudomonas fluorescens A32 HPPD, wild type (unmutated, vector pRPC); test: as above; assay type: cell-based; settings: 7 mM inhibitor
# From the text: The vector pRPA (described in application WO96/38567), which contains a genomic DNA fragment and the coding region of the gene for HPPD from Pseudomonas fluorescens A32, was digested with NcoI, purified and then ligated into the expression vector pKK233-2 (Clontech), which itself was digested with NcoI, the site for which forms a unique cloning site in this vector. The orientation of the gene in the resulting pRPC vector which permitted expression under the control of the trc promoter was verified.
# as §1, with “brown. […]” for “brown.”
# [10] = molecular target: T2, Synechocystis PCC6803 HPPD variant SyA318 (Glycine318 replaced with alanine) (Synechocystis sp., UniProt Q55810, G318A); test: as above; assay type: cell-based; settings: 7 mM inhibitor
# T2 construct: made in house; host or cells: E. coli, vector ptrc-99 A; crude extract (JM105 is named for the unmutated plasmid)
# Method: as §1, §2, §3
# (§6) Glycine318, replaced with alanine, designated SyA318, similar to PfA334 (in Example 3).
# [11] = molecular target: T3, Synechocystis PCC6803 HPPD, unmutated (Synechocystis sp., UniProt Q55810); test: as above; assay type: cell-based; settings: 7 mM inhibitor, 1 mM IPTG
# T3 construct: expressed in transfected cells; host or cells: E. coli JM105, vector ptrc-99 A, IPTG-induced
# T3 sequence (Q55810 1-339): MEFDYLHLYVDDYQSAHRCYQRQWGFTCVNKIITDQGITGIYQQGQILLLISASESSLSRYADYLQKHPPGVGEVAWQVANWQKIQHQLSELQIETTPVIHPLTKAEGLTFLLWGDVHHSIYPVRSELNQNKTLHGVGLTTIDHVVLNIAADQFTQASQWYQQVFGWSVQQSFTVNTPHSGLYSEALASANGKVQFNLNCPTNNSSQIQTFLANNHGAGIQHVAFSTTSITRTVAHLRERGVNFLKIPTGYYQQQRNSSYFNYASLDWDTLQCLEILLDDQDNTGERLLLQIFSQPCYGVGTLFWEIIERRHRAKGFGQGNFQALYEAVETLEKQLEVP
# Method: as §1
# The dioxygenase activity of the Synechocystis HPPD which had thus been obtained was observed by the browning of the medium, using the previously described colorimetric test, with addition of IPTG (isopropyl-b-D-thiogalactopyranoside) at a concentration of 1 mM in order to induce expression of the protein.
# [12] = test system: Synechocystis PCC6803 HPPD variant SyN318 (Glycine318 replaced with asparagine); test: HPPD activity by HPLC determination of homogentisate (Km, IC50); assay type: biochemical; settings: SyN318 versus unmutated Synechocystis HPPD; 10 min
# Method: as §4
# (§7) The mutants SyN318 and SyA318 which were obtained in the previous example were examined, in comparison with the unmutated HPPD of Synechocystis, for the biochemical characteristics Km and IC50 with regard to an HPPD inhibitor, i.e. 2-cyano-3-cyclopropyl-1-(2-methylsulphonyl-4-trifluoromethylphenyl)propane-1,3-dione. This analysis was carried out using the following protocol:
# (§8) The HPPD activity is measured by determining, by means of high performance liquid chromatography (HPLC), the quantity of product, i.e. homogentisate,which is formed after incubating the enzyme with its substrate HPP. Injecting different amounts of homogentisate, varying from 12 to 48 nmoles, into the column enables the retention time of the homogentisate to be determined and the peak area to be correlated with the quantity of product injected.
# (§9) The activity measurements are carried out in a final volume of […] containing: 12.6 mM ascorbate, […] iron (FeH8N2O8S2,6H2O) (previously prepared in 0.1 M tris-acetate buffer, pH6), […] of crude extract containing the HPPD, […] HPP and 0.1 M tris-acetate buffer, pH7.5. The enzyme is firstly incubated with the iron at 30° C. for 1 min and then with the ascorbate at 30° C. for 5 min before the reaction is started by adding the substrate, i.e. the HPP. The incubation is continued at 30° C. for 1 min 30sec and the reaction is then stopped by adding […] of 20% perchloric acid. The proteins are then removed by centrifuging for 5min at 15,300 rpm and at 20° C. The supernatant is recovered. The quantity of homogentisate formed is then analysed by injecting […] of assay mixture into a Pico TagC18 column which is connected to the HPLC system. […] On leaving the column, the homogentisate is detected by measuring absorbance at 288 nm. The quantity of product formed is defined by the area of the peak on the chromatogram.
# (§10) The Km of the HPPD for HPP is determined by measuring the initial velocity of the reaction using different concentrations of HPP. […]
# [13] = molecular target: T1, Synechocystis PCC6803 HPPD variant SyN318 (Glycine318 replaced with asparagine); test: as above; assay type: biochemical
# Method: as §4, §7, §8, §9, §10
# [14] = molecular target: Synechocystis PCC6803 HPPD, native (unmutated) (Synechocystis sp., UniProt Q55810); test: as above
# [15] = test system: Synechocystis PCC6803 HPPD variant SyA318 (Glycine318 replaced with alanine); test: as above; assay type: biochemical; settings: SyA318 versus unmutated Synechocystis HPPD; 10 min
# Method: as §6, §7, §8, §9, §10
# [16] = molecular target: T2, Synechocystis PCC6803 HPPD variant SyA318 (Glycine318 replaced with alanine); test: as above; assay type: biochemical
# Method: as §6, §7, §8, §9, §10
# O=C(O)C(=O)Cc1ccc(O)cc1 [17] = test: as above; assay type: biochemical; settings: other: Km of the HPPD for HPP, crude extract, 30° C., pH7.5, pH 7.5
# Method: as §6, §7, §8, §9, §10
# O=C(O)C(=O)Cc1ccc(O)cc1 [18] = test: as above; assay type: biochemical; settings: other: Km of the HPPD for HPP, crude extract, 30° C., pH7.5, pH 7.5; remark: listed apart in the source
# Method: as §4, §7, §8, §9, §10
# O=C(O)C(=O)Cc1ccc(O)cc1 [19] = test: cells, lysate or membranes named; settings: other: Km of the HPPD for HPP, crude extract, 30° C., pH7.5, pH 7.5
molecule,measurement,setting,value
"CS(=O)(=O)c1cc(C(F)(F)F)ccc1C(=O)C(C#N)C(=O)C1CC1 (stereo not drawn) [2-cyano-3-cyclopropyl-1-(2-methylsulphonyl-4-trifluoromethylphenyl)propane-1,3-dione]",browning of the screening medium,[1],caused browning of the screening medium
same,Activity in the screening test using a selective agent dose of 7 mM,[2],6
same,colour of the screening medium,[3],turn brown
same,Activity in the screening test using a selective agent dose of 7 mM,[3]; score 0 to 10,3
same,Activity in the screening test using a selective agent dose of 7 mM,[4],7
same,Activity in the screening test using a selective agent dose of 7 mM,[5],7
same,Activity in the screening test using a selective agent dose of 7 mM,[6],1
same,Activity in the screening test using a selective agent dose of 7 mM,[7],4
same,Activity in the screening test using a selective agent dose of 7 mM,[8],5
same,colour of the bacterial culture in the colorimetric test,"[9]; dissolved in water, pH7.5",totally without colour
same,Activity in the screening test using a selective agent dose of 7 mM,[9]; score 0 to 10,0
same,browning of the screening medium,[10],caused browning of the screening medium
same,browning of the medium in the colorimetric test,[11],no browning of the medium
same,ratio of the IC50 of a mutant HPPD to the IC50 of the non-mutant HPPD,[12],1000
same,IC50,[13],80 µM
same,IC50,[14],0.08 µM
same,ratio of the IC50 of a mutant HPPD to the IC50 of the non-mutant HPPD,[15],500
same,IC50,[16],40 µM
Synechocystis PCC6803 HPPD variant SyA318 (Glycine318 replaced with alanine) (Synechocystis sp. PCC 6803 substr. Kazusa; G318A),Km,O=C(O)C(=O)Cc1ccc(O)cc1 [17],320 µM
Synechocystis PCC6803 HPPD variant SyN318 (Glycine318 replaced with asparagine) (Synechocystis sp. PCC 6803 substr. Kazusa; G318N),Km,O=C(O)C(=O)Cc1ccc(O)cc1 [18],470 µM
"Synechocystis PCC6803 HPPD, native (unmutated) (Synechocystis sp. PCC 6803 substr. Kazusa)",Km,O=C(O)C(=O)Cc1ccc(O)cc1 [19],60 µM
